# Laboratory results reported in patent EP0001503A1, “Antithrombotic compositions containing benzisothiazolones” (BEECHAM GROUP PLC, priority 1977, dated 1979).
# Counter-ions that a name gives are not always drawn. Marks after values point to notes of the source that are not given here.
# Tests used:
# [1] = test system: platelet aggregation (collagen); test: Inhibition of collagen-induced platelet aggregation, guinea pig ex vivo (turbidimetric, PRP); format: in vivo; conditions: p.o.
# Method: (§1) These compounds were tested for inhibition of platelet aggregation alone and in combination with certain anti-inflammatory agents, in the guinea pig ex vivo by the following method: • Ten male guinea pigs weighing 250-300 g were orally dosed 1% methyl cellulose (5 ml/kg) in which the compound under test was suspended. Ten control animals were given methyl cellulose alone. […] Platelet-rich- plasma (PRP) was prepared from each blood sample by centrifigation at 450 g to 5 min. The platelet concentration in each sample or PRP was adjusted with auto- logous platelet-poor-plasma to give a count of […] PRP. Aggregation was measured turbido- metrically (G.V.R. Born, 1962, Nature, 194, 927-929) at 39° using a Bryston aggregometer coupled to a penrecorder. The concentration of callogen producing approximately 50% maximal aggregation and the concentration of ADP producing first-phase aggregation were compared in PRP samples from control and drug treated animals.
# (§2) In the tables the dose ratio represents the ratio of the concentration of aggregating agent to cause aggregation in PRP from drug-treated animals to the concentration of aggregating agent to cause aggregation in PRP from control animals.
# [2] = test system: platelet aggregation (ADP); test: Inhibition of ADP-induced platelet aggregation, guinea pig ex vivo (turbidimetric, PRP); format: in vivo; conditions: p.o.
# Method: as §1, §2
# [3] = Table 1, PRP 2 h after dosing, mmol(mg)/kg: Aspirin 0.15 (27), Compound A 0.08 (20), combination 0.15 (27)+0.08 (20)
# [4] = Table 2, 2 h, mmol(mg)/kg: Aspirin 0.15 (27), Compound B 0.08 (22), combination 0.15 (27)+0.08 (22)
# [5] = Table 4, 2 h, mmol(mg)/kg: Aspirin 0.15 (27), Compound C 0.6 (217), combination 0.15 (27)+0.6 (217)
# [6] = Table 5, 2 h, mmol(mg)/kg: Aspirin 0.15 (27), Compound D 0.08 (31), combination 0.08 (31)+0.15 (27)
# [7] = Table 6, 2 h, mmol(mg)/kg: Aspirin 0.15 (27), Compound D 0.15 (59), Compound D Aspirinate Salt 0.15 (88)
# [8] = Table 1, ADP 0.5μM, 2 h, mmol(mg)/kg: Aspirin 0.15 (27), Compound A 0.08 (20), combination 0.15 (27)+0.08 (20)
# [9] = Table 1, 2 h, mmol(mg)/kg: Aspirin 0.15 (27), Compound A 0.08 (20), combination 0.15 (27)+0.08 (20)
# [10] = Table 2, ADP 0.5μM, 2 h, mmol(mg)/kg: Aspirin 0.15 (27), Compound B 0.08 (22), combination 0.15 (27)+0.08 (22)
# [11] = Table 4, ADP 0.5μM, 2 h, mmol(mg)/kg: Aspirin 0.15 (27), Compound C 0.6 (217), combination 0.15 (27)+0.6 (217)
# [12] = Table 5, ADP 0.5µM, 2 h, mmol(mg)/kg: Aspirin 0.15 (27), Compound D 0.08 (31), combination 0.08 (31)+0.15 (27)
# [13] = Table 6, ADP 0.5µM, 2 h, mmol(mg)/kg: Aspirin 0.15 (27), Compound D 0.15 (59), Compound D Aspirinate Salt 0.15 (88)
# [14] = Table 3, 2 h, mmol(mg)/kg: Indomethacin 0.003 (1), Compound B 0.08 (22), combination 0.003 (1)+0.08 (22)
# [15] = Table 3, ADP 0.5µM, 2 h, mmol(mg)/kg: Indomethacin 0.003 (1), Compound B 0.08 (22), combination 0.003 (1)+0.08 (22)
smiles,measurement,setting,value
"CC(=O)Oc1ccccc1C(=O)O [Aspirin, aspirin, reference compound]",Dose-ratio vs. Coll.,[1]; [3],2.2*
same,Dose-ratio vs. Coll.,[1]; [4],2.2*
same,Dose-ratio vs. Coll.,[1]; [5],2.2*
same,Dose-ratio vs. Coll.,[1]; [6],2.2*
same,Dose-ratio vs. Coll.,[1]; [7],2.2*
same,% Inhibition of ADP (0.5µM),[2]; [8],16%
same,% Inhibition of ADP 1μM,[2]; [9],0%
same,Dose-ratio vs. ADP,[2]; [3],1.3
same,% Inhibition of ADP (0.5µM),[2]; [10],0%
same,Dose-ratio vs. ADP,[2]; [4],1.3
same,% Inhibition of ADP (0.5µM),[2]; [11],0%
same,Dose-ratio vs. ADP,[2]; [5],1.3
same,% Inhibition of ADP (0.5µM),[2]; [12],0%
same,Dose-ratio vs. ADP,[2]; [6],1.3
same,% Inhibition of ADP (0.5µM),[2]; [13],0%
same,Dose-ratio vs. ADP,[2]; [7],1.3
"O=c1c2ccccc2sn1CCN1CCCCC1 [Compound A, 2-[2-(1-piperidyl)ethyl] 1,2-benzisothiazol-3-one]",Dose-ratio vs. Coll.,[1]; [3],8.3*
same,% Inhibition of ADP (0.5µM),[2]; [8],26%
same,% Inhibition of ADP 1μM,[2]; [9],0%
same,Dose-ratio vs. ADP,[2]; [3],1.4*
"O=c1c2ccccc2sn1CCCN1CCCCC1 [Compound B, 2-[3-(1-piperidyl)propyl]-1,2-benzisothiazol-3-one]",Dose-ratio vs. Coll.,[1]; [4],9.0*
same,Dose-ratio vs. Coll.,[1]; [14],9.0*
same,% Inhibition of ADP (0.5µM),[2]; [10],57* %
same,Dose-ratio vs. ADP,[2]; [4],1.7*
same,% Inhibition of ADP (0.5µM),[2]; [15],57* %
same,Dose-ratio vs. ADP,[2]; [14],1.7*
"COc1cc2sn(CCN3CC4CCC(CC4)C3)c(=O)c2cc1OC [Compound C, 2-[2-(3-azabicyclo[3.2.2]non-3-yl)ethyl)-5,6-dimethoxy-1,2-benzisothiazol-3-one]",Dose-ratio vs. Coll.,[1]; [5],>13.9*
same,% Inhibition of ADP (0.5µM),[2]; [11],92* %
same,Dose-ratio vs. ADP,[2]; [5],3.3*
"COc1cc2sn(CCCCN3CC4CCC(CC4)C3)c(=O)c2cc1OC [Compound D Aspirinate Salt, Aspirin salt of 2-(4-(3-azabicyclo[3.2.2.]non-3-yl)butyl)-5,6-dimethoxy-1,2-benzisothiazol-3-one]",Dose-ratio vs. Coll.,[1]; [7],>57*
same,% Inhibition of ADP (0.5µM),[2]; [13],91* %
same,Dose-ratio vs. ADP,[2]; [7],4.6*
"COc1cc2sn(CCCCN3CC4CCC(CC4)C3)c(=O)c2cc1OC [Compound D, 2-[4-(3-azabicyclo[3.2.2]non-3-yl)butyl]-5,6-dimethoxy-1,2-benzisothiazol-3-one]",Dose-ratio vs. Coll.,[1]; [6],5.4*
same,Dose-ratio vs. Coll.,[1]; [7],>15.4*
same,% Inhibition of ADP (0.5µM),[2]; [12],86* %
same,Dose-ratio vs. ADP,[2]; [6],2.6*
same,% Inhibition of ADP (0.5µM),[2]; [13],61* %
same,Dose-ratio vs. ADP,[2]; [7],3.2*
"COc1ccc2c(c1)c(CC(=O)O)c(C)n2C(=O)c1ccc(Cl)cc1 [Indo-methacin, Indomethacin, reference compound]",Dose-ratio vs. Coll.,[1]; [14],1.7*
same,% Inhibition of ADP (0.5µM),[2]; [15],0%
same,Dose-ratio vs. ADP,[2]; [14],1.1
